Data: US12077503B2, “Substituted cyclic amides and their use as herbicides” (FMC CORPORATION, priority 2015, dated 2024)

Columns and labels:
Format in all cases: in vivo
[1] = tested on: Kochia (Kochia scoparia); assay: Test A preemergence; settings: Bassia scoparia, pre-emergence, 240 h
How it was run: (§1)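 Compounds were formulated in a non-phytotoxic solvent mixture with surfactant and applied as a preemergence directed soil spray after seeding, or sprayed postemergence over plants 2 to 10 cm tall at the one- to two-leaf stage. Evaluation after about 10 d compared treated with untreated controls, using a scale from 0 (no effect) to 100 (complete control).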

[2] = tested on: barnyardgrass (Echinochloa crus-galli); assay: Test A preemergence; settings: Echinochloa crus-galli, pre-emergence, 240 h
How it was run: as §1

[3] = tested on: giant foxtail (Setaria faberii); assay: Test A preemergence; settings: Setaria faberi, pre-emergence, 240 h
How it was run: as §1

[4] = tested on: pigweed (Amaranthus retroflexus); assay: Test A preemergence; settings: Amaranthus retroflexus, pre-emergence, 240 h
[5] = tested on: ragweed (common ragweed, Ambrosia elatior); assay: Test A preemergence; settings: Ambrosia artemisiifolia, pre-emergence, 240 h
How it was run: as §1

[6] = tested on: ryegrass, Italian (Italian ryegrass, Lolium multiflorum); assay: Test A preemergence; settings: Lolium multiflorum, pre-emergence, 240 h
How it was run: as §1

[7] = tested on: Galium (catchweed bedstraw, Galium aparine); assay: Test A postemergence; settings: Galium, post-emergence, 240 h, 125 g ai/ha, postemergence; visual injury after approximately 10 d; 0 to 100 scale (0 no effect, 100 complete control); read-out: Plant response rating, Galium
How it was run: as §1

[8] = tested on: Kochia (Kochia scoparia); assay: Test A postemergence; settings: Bassia scoparia, post-emergence, 240 h, 125 g ai/ha, postemergence; visual injury after approximately 10 d; 0 to 100 scale (0 no effect, 100 complete control); read-out: Plant response rating, Kochia
How it was run: as §1

[9] = tested on: barnyardgrass (Echinochloa crus-galli); assay: Test A postemergence; settings: Echinochloa crus-galli, post-emergence, 240 h, 125 g ai/ha, postemergence; visual injury after approximately 10 d; 0 to 100 scale (0 no effect, 100 complete control); read-out: Plant response rating, Barnyardgrass
How it was run: as §1

[10] = tested on: blackgrass (Alopecurus myosuroides); assay: Test A postemergence; settings: Alopecurus myosuroides, post-emergence, 240 h, 125 g ai/ha, postemergence; visual injury after approximately 10 d; 0 to 100 scale (0 no effect, 100 complete control); read-out: Plant response rating, Blackgrass
How it was run: as §1

[11] = tested on: corn (Zea mays); assay: Test A postemergence; settings: Zea mays, post-emergence, 240 h, 125 g ai/ha, postemergence; visual injury after approximately 10 d; 0 to 100 scale (0 no effect, 100 complete control)
How it was run: as §1

[12] = tested on: giant foxtail (Setaria faberii); assay: Test A postemergence; settings: Setaria faberi, post-emergence, 240 h, 125 g ai/ha, postemergence; visual injury after approximately 10 d; 0 to 100 scale (0 no effect, 100 complete control); read-out: Plant response rating, Foxtail, Giant
How it was run: as §1

[13] = tested on: pigweed (Amaranthus retroflexus); assay: Test A postemergence; settings: Amaranthus retroflexus, post-emergence, 240 h, 125 g ai/ha, postemergence; visual injury after approximately 10 d; 0 to 100 scale (0 no effect, 100 complete control); read-out: Plant response rating, Pigweed
How it was run: as §1

[14] = tested on: ragweed (common ragweed, Ambrosia elatior); assay: Test A postemergence; settings: Ambrosia artemisiifolia, post-emergence, 240 h, 125 g ai/ha, postemergence; visual injury after approximately 10 d; 0 to 100 scale (0 no effect, 100 complete control); read-out: Plant response rating, Ragweed
How it was run: as §1

[15] = tested on: wheat (Triticum aestivum); assay: Test A postemergence; settings: Triticum aestivum, post-emergence, 240 h, 125 g ai/ha, postemergence; visual injury after approximately 10 d; 0 to 100 scale (0 no effect, 100 complete control); read-out: Plant response rating, Wheat
How it was run: as §1

SMILES: CN1C[C@H](c2ccc(C#N)cc2)[C@@H](C(=O)Nc2cccc(F)c2F)C1=O (racemic) [Compound 775]
- pest or weed control at 125 g/ha ([1]; 125 g ai/ha, preemergence, visual rating after approx. 10 d, 0 to 100 scale where 0 is no effect and 100 is complete control, read-out: Plant response rating, Kochia): 30%
- pest or weed control at 500 g/ha ([1]; 500 g ai/ha, Preemergence, visual injury vs untreated controls after approximately 10 d, read-out: Kochia plant response rating (0 to 100 scale where 0 is no effect and 100 is complete control)): 80%
- pest or weed control at 125 g/ha ([2]; 125 g ai/ha, preemergence, visual rating after approx. 10 d, 0 to 100 scale where 0 is no effect and 100 is complete control, read-out: Plant response rating, Barnyardgrass): 60%
- pest or weed control at 500 g/ha ([2]; 500 g ai/ha, Preemergence, visual injury vs untreated controls after approximately 10 d, read-out: Barnyardgrass plant response rating (0 to 100 scale where 0 is no effect and 100 is complete control)): 100%
- pest or weed control at 125 g/ha ([3]; 125 g ai/ha, preemergence, visual rating after approx. 10 d, 0 to 100 scale where 0 is no effect and 100 is complete control, read-out: Plant response rating, Foxtail, Giant): 80%
- pest or weed control at 500 g/ha ([3]; 500 g ai/ha, Preemergence, visual injury vs untreated controls after approximately 10 d, read-out: Foxtail, Giant plant response rating (0 to 100 scale where 0 is no effect and 100 is complete control)): 100%
- pest or weed control at 125 g/ha ([4]; 125 g ai/ha, preemergence, visual rating after approx. 10 d, 0 to 100 scale where 0 is no effect and 100 is complete control, read-out: Plant response rating, Pigweed): 30%
- pest or weed control at 500 g/ha ([4]; 500 g ai/ha, Preemergence, visual injury vs untreated controls after approximately 10 d, read-out: Pigweed plant response rating (0 to 100 scale where 0 is no effect and 100 is complete control)): 70%
- pest or weed control at 125 g/ha ([5]; 125 g ai/ha, preemergence, visual rating after approx. 10 d, 0 to 100 scale where 0 is no effect and 100 is complete control, read-out: Plant response rating, Ragweed): 50%
- pest or weed control at 500 g/ha ([5]; 500 g ai/ha, Preemergence, visual injury vs untreated controls after approximately 10 d, read-out: Ragweed plant response rating (0 to 100 scale where 0 is no effect and 100 is complete control)): 80%
- pest or weed control at 125 g/ha ([6]; 125 g ai/ha, preemergence, visual rating after approx. 10 d, 0 to 100 scale where 0 is no effect and 100 is complete control, read-out: Plant response rating, Ryegrass, Italian): 0%
- pest or weed control at 500 g/ha ([6]; 500 g ai/ha, Preemergence, visual injury vs untreated controls after approximately 10 d, read-out: Ryegrass, Italian plant response rating (0 to 100 scale where 0 is no effect and 100 is complete control)): 0%
- pest or weed control at 125 g/ha [7]: 40%
- pest or weed control at 125 g/ha [8]: 40%
- pest or weed control at 125 g/ha [9]: 50%
- pest or weed control at 125 g/ha [10]: 0%
- Corn plant response rating (crop injury, 0 = no effect, 100 = complete kill) at 125 g/ha [11]: 20%
- pest or weed control at 125 g/ha [12]: 60%
- pest or weed control at 125 g/ha [13]: 0%
- pest or weed control at 125 g/ha [14]: 20%
- plant injury at 125 g/ha [15]: 20%
